Source: PubChem BioAssay (NCI)
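1) Cells in 96-well plates. 2) Compound, 48 h, 5 concentrations. 3) Linear interpolation between surrounding doses. 4) Unreached endpoint = highest concentration. The concentration for full growth arrest is given as TGI.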

What was measured:
Experiment in all cases: DTP human tumour cell line panel, 48 h
RPMI-8226 leukemia = test system: RPMI-8226 leukemia
MDA-N = test system: MDA-N
NCI-H226 lung = test system: NCI-H226 lung
UACC-257 melanoma = test system: UACC-257 melanoma
PC-3 prostate = test system: PC-3 prostate
SF-268 CNS = test system: SF-268 CNS
UO-31 renal = test system: UO-31 renal
A549 NSCLC = test system: A549 NSCLC
HOP-62 NSCLC = test system: HOP-62 NSCLC
U251 CNS = test system: U251 CNS
HCC-2998 colon = test system: HCC-2998 colon
M14 melanoma = test system: M14 melanoma
OVCAR-5 ovarian = test system: OVCAR-5 ovarian
HCT-116 colon = test system: HCT-116 colon
SN12C renal = test system: SN12C renal
SNB-75 CNS = test system: SNB-75 CNS
NCI-H460 lung = test system: NCI-H460 lung
UACC-62 melanoma = test system: UACC-62 melanoma
A498 renal = test system: A498 renal
RXF 393 renal = test system: RXF 393 renal
SK-MEL-5 melanoma = test system: SK-MEL-5 melanoma
OVCAR-4 ovarian = test system: OVCAR-4 ovarian
OVCAR-8 ovarian = test system: OVCAR-8 ovarian
HS 578T breast = test system: HS 578T breast
HL-60(TB) leukemia = test system: HL-60(TB) leukemia
K-562 leukemia = test system: K-562 leukemia
ACHN renal = test system: ACHN renal
EKVX NSCLC = test system: EKVX NSCLC
SF-539 CNS = test system: SF-539 CNS
MOLT-4 leukemia = test system: MOLT-4 leukemia
HCT-15 colon = test system: HCT-15 colon
LOX IMVI melanoma = test system: LOX IMVI melanoma
786-0 renal = test system: 786-0 renal
DU-145 prostate = test system: DU-145 prostate
MCF7 breast = test system: MCF7 breast
MDA-MB-435 = test system: MDA-MB-435
TK-10 renal = test system: TK-10 renal
OVCAR-3 ovarian = test system: OVCAR-3 ovarian
NCI/ADR-RES ovarian = test system: NCI/ADR-RES ovarian
HT29 colon = test system: HT29 colon
SNB-19 CNS = test system: SNB-19 CNS
CAKI-1 renal = test system: CAKI-1 renal
SW-620 colon = test system: SW-620 colon
SR leukemia = test system: SR leukemia
NCI-H23 lung = test system: NCI-H23 lung
MDA-MB-231 breast = test system: MDA-MB-231 breast
SK-MEL-2 melanoma = test system: SK-MEL-2 melanoma
COLO 205 colon = test system: COLO 205 colon
KM12 colon = test system: KM12 colon
T-47D breast = test system: T-47D breast
BT-549 breast = test system: BT-549 breast
SK-MEL-28 melanoma = test system: SK-MEL-28 melanoma
NCI-H522 lung = test system: NCI-H522 lung
SF-295 CNS = test system: SF-295 CNS
CCRF-CEM leukemia = test system: CCRF-CEM leukemia
HOP-92 NSCLC = test system: HOP-92 NSCLC
MALME-3M melanoma = test system: MALME-3M melanoma
IGROV1 ovarian = test system: IGROV1 ovarian

How did the TGI (RPMI-8226 leukemia) turn out when `CN(C)c1ccc(/C=C/C(=O)N[C@@H]2C(=O)N3[C@@H]2SC(C)(C)[C@@H]3C(=O)O)cc1` was run?
The TGI was greater than 100 µM.

And the TGI (MDA-N)?
The TGI was greater than 100 µM.

And the TGI (NCI-H226 lung)?
The TGI was greater than 100 µM.

And the TGI (UACC-257 melanoma)?
Its TGI is greater than 100 µM.

What about the TGI (PC-3 prostate) of the same compound?
The TGI was greater than 100 µM.

What about the TGI (SF-268 CNS) of the same compound?
The TGI was greater than 100 µM.

And the TGI (UO-31 renal)?
The TGI was greater than 100 µM.

What about the TGI (A549 NSCLC) of the same compound?
Its TGI is greater than 100 µM.

What about the TGI (HOP-62 NSCLC) of the same compound?
Its TGI is greater than 100 µM.

And the TGI (U251 CNS)?
The TGI was greater than 100 µM.

And the TGI (HCC-2998 colon)?
The TGI was greater than 100 µM.

And the TGI (M14 melanoma)?
The TGI was greater than 100 µM.

And the TGI (OVCAR-5 ovarian)?
The TGI was greater than 100 µM.

What about the TGI (HCT-116 colon) of the same compound?
The TGI was greater than 100 µM.

What about the TGI (SN12C renal) of the same compound?
The TGI was greater than 100 µM.

And the TGI (SNB-75 CNS)?
Its TGI is greater than 100 µM.

And the TGI (NCI-H460 lung)?
Its TGI is greater than 100 µM.

What about the TGI (UACC-62 melanoma) of the same compound?
The TGI was greater than 100 µM.

And the TGI (A498 renal)?
Its TGI is greater than 100 µM.

What about the TGI (RXF 393 renal) of the same compound?
The TGI was greater than 100 µM.

And the TGI (SK-MEL-5 melanoma)?
The TGI was greater than 100 µM.

What about the TGI (OVCAR-4 ovarian) of the same compound?
Its TGI is greater than 100 µM.

What about the TGI (OVCAR-8 ovarian) of the same compound?
Its TGI is greater than 100 µM.

What about the TGI (HS 578T breast) of the same compound?
Its TGI is greater than 100 µM.

What about the TGI (HL-60(TB) leukemia) of the same compound?
The TGI was greater than 100 µM.

What about the TGI (K-562 leukemia) of the same compound?
Its TGI is greater than 100 µM.

And the TGI (ACHN renal)?
The TGI was greater than 100 µM.

What about the TGI (EKVX NSCLC) of the same compound?
Its TGI is greater than 100 µM.

And the TGI (SF-539 CNS)?
Its TGI is greater than 100 µM.

And the TGI (MOLT-4 leukemia)?
The TGI was greater than 100 µM.

And the TGI (HCT-15 colon)?
Its TGI is greater than 100 µM.

And the TGI (LOX IMVI melanoma)?
Its TGI is greater than 100 µM.

And the TGI (786-0 renal)?
The TGI was greater than 100 µM.

And the TGI (DU-145 prostate)?
Its TGI is greater than 100 µM.

What about the TGI (MCF7 breast) of the same compound?
The TGI was greater than 100 µM.

What about the TGI (MDA-MB-435) of the same compound?
Its TGI is greater than 100 µM.

What about the TGI (TK-10 renal) of the same compound?
The TGI was greater than 100 µM.

What about the TGI (OVCAR-3 ovarian) of the same compound?
The TGI was greater than 100 µM.

What about the TGI (NCI/ADR-RES ovarian) of the same compound?
The TGI was greater than 100 µM.

What about the TGI (HT29 colon) of the same compound?
Its TGI is greater than 100 µM.

What about the TGI (SNB-19 CNS) of the same compound?
Its TGI is greater than 100 µM.

What about the TGI (CAKI-1 renal) of the same compound?
The TGI was greater than 100 µM.

What about the TGI (SW-620 colon) of the same compound?
Its TGI is greater than 100 µM.

What about the TGI (SR leukemia) of the same compound?
Its TGI is greater than 100 µM.

What about the TGI (NCI-H23 lung) of the same compound?
Its TGI is greater than 100 µM.

And the TGI (MDA-MB-231 breast)?
The TGI was greater than 100 µM.

And the TGI (SK-MEL-2 melanoma)?
The TGI was greater than 100 µM.

What about the TGI (COLO 205 colon) of the same compound?
The TGI was greater than 100 µM.

And the TGI (KM12 colon)?
Its TGI is greater than 100 µM.

What about the TGI (T-47D breast) of the same compound?
The TGI was greater than 100 µM.

And the TGI (BT-549 breast)?
Its TGI is greater than 100 µM.

What about the TGI (SK-MEL-28 melanoma) of the same compound?
Its TGI is greater than 100 µM.

What about the TGI (NCI-H522 lung) of the same compound?
Its TGI is greater than 100 µM.

And the TGI (SF-295 CNS)?
Its TGI is greater than 100 µM.

And the TGI (CCRF-CEM leukemia)?
The TGI was greater than 100 µM.

Which TGI (RPMI-8226 leukemia) does the source give for `Nc1nccc(NCC2(CO)CCC2)n1` here?
Its TGI is greater than 100 µM.

And the TGI (MDA-N)?
Its TGI is greater than 100 µM.

And the TGI (NCI-H226 lung)?
The TGI was greater than 100 µM.

And the TGI (UACC-257 melanoma)?
Its TGI is greater than 100 µM.

And the TGI (PC-3 prostate)?
The TGI was greater than 100 µM.

And the TGI (SF-268 CNS)?
Its TGI is greater than 100 µM.

And the TGI (UO-31 renal)?
Its TGI is greater than 100 µM.

What about the TGI (A549 NSCLC) of the same compound?
Its TGI is greater than 100 µM.

What about the TGI (HOP-62 NSCLC) of the same compound?
The TGI was greater than 100 µM.

What about the TGI (HOP-92 NSCLC) of the same compound?
The TGI was greater than 100 µM.

And the TGI (U251 CNS)?
Its TGI is greater than 100 µM.

And the TGI (HCC-2998 colon)?
The TGI was greater than 100 µM.

And the TGI (OVCAR-5 ovarian)?
Its TGI is greater than 100 µM.

And the TGI (HCT-116 colon)?
The TGI was greater than 100 µM.

What about the TGI (SN12C renal) of the same compound?
The TGI was greater than 100 µM.

What about the TGI (SNB-75 CNS) of the same compound?
The TGI was greater than 100 µM.

And the TGI (NCI-H460 lung)?
Its TGI is greater than 100 µM.

And the TGI (UACC-62 melanoma)?
Its TGI is greater than 100 µM.

What about the TGI (A498 renal) of the same compound?
Its TGI is greater than 100 µM.

And the TGI (RXF 393 renal)?
The TGI was greater than 100 µM.

And the TGI (SK-MEL-5 melanoma)?
The TGI was greater than 100 µM.

What about the TGI (MALME-3M melanoma) of the same compound?
The TGI was greater than 100 µM.

And the TGI (IGROV1 ovarian)?
Its TGI is greater than 100 µM.

What about the TGI (OVCAR-8 ovarian) of the same compound?
The TGI was greater than 100 µM.

And the TGI (HS 578T breast)?
Its TGI is greater than 100 µM.

What about the TGI (HL-60(TB) leukemia) of the same compound?
Its TGI is greater than 100 µM.

And the TGI (K-562 leukemia)?
Its TGI is greater than 100 µM.

And the TGI (ACHN renal)?
The TGI was greater than 100 µM.

And the TGI (EKVX NSCLC)?
Its TGI is greater than 100 µM.

And the TGI (SF-539 CNS)?
The TGI was greater than 100 µM.

What about the TGI (MOLT-4 leukemia) of the same compound?
Its TGI is greater than 100 µM.

What about the TGI (HCT-15 colon) of the same compound?
Its TGI is greater than 100 µM.

And the TGI (LOX IMVI melanoma)?
The TGI was greater than 100 µM.

What about the TGI (786-0 renal) of the same compound?
Its TGI is greater than 100 µM.

And the TGI (DU-145 prostate)?
Its TGI is greater than 100 µM.

And the TGI (MCF7 breast)?
The TGI was greater than 100 µM.

And the TGI (MDA-MB-435)?
Its TGI is greater than 100 µM.

And the TGI (TK-10 renal)?
Its TGI is 77.4 µM.

And the TGI (OVCAR-3 ovarian)?
The TGI was greater than 100 µM.

What about the TGI (NCI/ADR-RES ovarian) of the same compound?
The TGI was greater than 100 µM.

What about the TGI (HT29 colon) of the same compound?
The TGI was greater than 100 µM.

What about the TGI (CAKI-1 renal) of the same compound?
The TGI was greater than 100 µM.

What about the TGI (SW-620 colon) of the same compound?
The TGI was greater than 100 µM.

What about the TGI (SR leukemia) of the same compound?
The TGI was greater than 100 µM.

And the TGI (NCI-H23 lung)?
The TGI was greater than 100 µM.

What about the TGI (MDA-MB-231 breast) of the same compound?
Its TGI is greater than 100 µM.

And the TGI (SK-MEL-2 melanoma)?
The TGI was greater than 100 µM.

What about the TGI (COLO 205 colon) of the same compound?
The TGI was greater than 100 µM.

What about the TGI (KM12 colon) of the same compound?
Its TGI is greater than 100 µM.

What about the TGI (T-47D breast) of the same compound?
The TGI was greater than 100 µM.

And the TGI (BT-549 breast)?
The TGI was greater than 100 µM.

What about the TGI (SK-MEL-28 melanoma) of the same compound?
Its TGI is greater than 100 µM.

And the TGI (NCI-H522 lung)?
The TGI was greater than 100 µM.

What about the TGI (SF-295 CNS) of the same compound?
The TGI was greater than 100 µM.

And the TGI (CCRF-CEM leukemia)?
Its TGI is greater than 100 µM.
